From US20100292288A1, “CRYSTALLINE FORMS OF (R)-1-{2-[4`- (3-METHOXY-PROPANE-1- SULFONYL)-BIPHENYL-4-YL]-ETHYL}-2-METHYL-PYRROLIDINE, AND COMPOSITIONS, AND METHODS RELATED THERETO” (ARENA PHARMACEUTICALS, INC., priority 2007, published 2010)
pKi: −log10 of the molar value.

How the values were obtained:
[1] = molecular target: T1, human histamine H3-receptor (Homo sapiens, UniProt Q9Y5N1); assay: Human histamine H3-receptor binding assay, MDS Pharma Services (Taiwan); conditions: Catalogue No. 239810
T1 construct: purchased MDS Pharma Services (Taiwan) 239810
T1 sequence (Q9Y5N1 whole entry): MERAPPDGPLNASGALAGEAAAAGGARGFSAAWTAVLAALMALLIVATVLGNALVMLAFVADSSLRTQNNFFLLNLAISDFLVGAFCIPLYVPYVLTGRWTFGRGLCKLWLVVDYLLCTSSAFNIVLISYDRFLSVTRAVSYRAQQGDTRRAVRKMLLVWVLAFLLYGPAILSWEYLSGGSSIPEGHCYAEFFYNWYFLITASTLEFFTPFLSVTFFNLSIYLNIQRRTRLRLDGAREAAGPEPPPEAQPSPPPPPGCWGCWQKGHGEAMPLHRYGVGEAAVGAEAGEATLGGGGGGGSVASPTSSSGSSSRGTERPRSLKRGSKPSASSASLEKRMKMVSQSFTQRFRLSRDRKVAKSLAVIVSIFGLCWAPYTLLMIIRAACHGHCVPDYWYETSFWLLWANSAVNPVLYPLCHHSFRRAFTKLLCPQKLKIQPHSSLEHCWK
Protocol: Compounds were tested for their ability to bind to the human histamine H3-receptor using the MDS Pharma Services (Taiwan) assay, Catalogue No. 239810.

[2] = molecular target: histamine H3-receptor (Rattus norvegicus, UniProt Q9QYN8); assay: [3H] N-alpha-methyl-histamine competitive histamine H3-receptor binding assay; conditions: membranes from whole rat brain cortex; [3H]-N-α-methyl-histamine 1 nM; 30 min at room temperature
Chain of histamine H3-receptor (Q9QYN8 1-397 isoform Q9QYN8-3): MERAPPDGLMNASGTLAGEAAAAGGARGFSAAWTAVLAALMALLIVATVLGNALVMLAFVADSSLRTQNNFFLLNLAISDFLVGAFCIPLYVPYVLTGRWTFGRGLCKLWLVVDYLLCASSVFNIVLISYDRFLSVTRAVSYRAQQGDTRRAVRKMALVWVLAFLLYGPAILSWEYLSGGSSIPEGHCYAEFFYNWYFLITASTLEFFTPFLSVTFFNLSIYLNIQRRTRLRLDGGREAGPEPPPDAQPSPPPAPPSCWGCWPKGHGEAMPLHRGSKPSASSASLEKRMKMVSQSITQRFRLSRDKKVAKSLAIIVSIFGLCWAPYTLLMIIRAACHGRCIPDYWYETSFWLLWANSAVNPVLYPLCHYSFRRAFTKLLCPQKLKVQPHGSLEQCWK
Protocol: The histamine receptor binding assay was conducted using standard laboratory procedures as described below. A crude membrane fraction was prepared from whole rat brain cortex using a polytron to homogenize the tissue followed by differential centrifugation in a HEPES-based buffer containing protease inhibitors. Membranes where frozen at −80° C. until needed. Frozen membranes were thawed and resuspended in ice-cold assay buffer consisting of 50 mM TRIS containing 5 mM EDTA (pH=7.4). 50 micrograms (μg) of membrane protein was added to each well of a 96-well assay plate along with test compound and [^3H]-N-α-methyl-histamine (1 nanomolar (nM) final assay concentration). Imetit was used as an assay positive control at varying concentrations. The plate was incubated for 30 min at room temperature. The assay was terminated by rapid filtration through a 96-well glass fiber filtration plate (GF/C) using a cell harvester (Perkin-Elmer). Captured membranes were washed three times with cold assay buffer and plates were dried at 50° C. 35 microliters (μL) of scintillation cocktail was added to each well and membrane-bound radioactivity was recorded using a TopCount 96-well plate scintillation counter (Perkin-Elmer).

[3] = tested on: RAMH-induced drinking; assay: Blockade of RAMH-induced drinking assay; type: in vivo, rat; conditions: male Sprague Dawley rats; 0.3 mg/kg PO; RAMH 3 mg/kg SC 30 min later; water intake over 20 min
Protocol: When administered to rodents, H3 agonists such as R-α-methyl-histamine (RAMH) induce a drinking response which is sensitive to reversal with an H3 antagonist. Blockade of RAMH-induced drinking can therefore be utilised as an in vivo assay for functional H3 antagonist activity. In this assay, male Sprague Dawley rats (250-350 g) were housed three per cage and maintained under a reverse 12 h light cycle (lights off at 1130 h). At 1030 h on the day of test, rats were individually housed in new cages and food was removed. 120 min later, rats were administered test article (vehicle or H3 antagonist, 0.3 mg/kg PO). 30 min later, water was removed, and RAMH (vehicle or RAMH 3 mg/kg salt SC) was administered. 10 min after administration of RAMH, weighed water bottles were placed in the cages, and drinking was allowed for 20 min. Water consumption was determined for each animal by weighing each bottle to the nearest 0.1 g. Data is expressed as percentage reduction in water intake according to the following formula: [1−[(ANTAGONIST/RAMH)−(VEHICLE/RAMH)/(VEHICLE/RAMH)−(VEHICLE/VEHICLE)]]*100

[4] = Dynamic vapor sorption (DVS) analysis, hygroscopicity; type: physicochemical; conditions: crystalline form; VTI-SGA100
Protocol: Dynamic vapor sorption analysis was conducted using a VTI-SGA100. Samples were placed in an open pan inside the instrument and allowed to dry at a relative humidity (RH) of 0%. The sample was considered sufficiently dry when a change in mass over time (dm/dt) was less than 0.04%. The subsequent experiment which, started immediately after drying, was as follows: RH increased in 5% RH steps from 0-95% followed by decreasing RH steps from 95-5%. A change in dm/dt of 0.002% was used to determine when equilibration at any given step was achieved prior to the instrument moving to the next relative humidity step.
Hygroscopicity was measured using a dynamic moisture-sorption analyzer, VTI Corporation, SGA-100. The sample was placed as-is in a tared sample holder on the VTI balance. A drying step was run at 40° C. and 1% RH for 20 minutes. The isotherm conditions are 25° C. with steps of 20% RH from 10% RH up to 90% RH and back to 10% RH. Weight is checked every 5 minutes. Consecutive % weight change of <0.01% or 2 hours, whichever occurs first, is required before continuing to the next step.

Row | pKi [1] | pKi [2] | hygroscopicity from DVS data [4] | SMILES | % inhibition of RAMH-induced drinking [3] [%]
1 | 8.27 | – | – | COCCCS(=O)(=O)c1ccc(-c2ccc(CCN3CCC[C@H]3C)cc2)cc1 [Cmpd (I), (R)-1-{2-[4′-(3-methoxy-propane-1-sulfonyl)-biphenyl-4-yl]-ethyl}-2-methyl-pyrrolidine] | –
2 | – | 9.12 | non-hygroscopic | COCCCS(=O)(=O)c1ccc(-c2ccc(CCN3CCC[C@H]3C)cc2)cc1.O=C(O)CC(O)(CC(=O)O)C(=O)O.O=C(O)CC(O)(CC(=O)O)C(=O)O [Cmpd (I) di-citrate, (R)-1-{2-[4′-(3-methoxy-propane-1-sulfonyl)-biphenyl-4-yl]-ethyl}-2-methyl-pyrrolidine di-citrate] | 104 ± 14
3 | – | – | non-hygroscopic | COCCCS(=O)(=O)c1ccc(-c2ccc(CCN3CCC[C@H]3C)cc2)cc1.O=C(O)/C=C\C(=O)O [(R)-1-{2-[4′-(3-methoxy-propane-1-sulfonyl)-biphenyl-4-yl]-ethyl}-2-methyl-pyrrolidine maleate] | –
